Paper doi:10.1101/2020.06.11.145995v1 (biorxiv, 2020)
Where two headings read alike, the source gives them in different places. Blank lines part the entries; values can stand above or below the compound they belong to.

Columns and labels:
Test in all cases: biochemical
[1] = biological target: BMPR2 (Homo sapiens, UniProt Q13873)
[2] = biological target: CASK (Homo sapiens, UniProt O14936)
[3] = biological target: AURKC (Homo sapiens, UniProt Q9UQB9)
[4] = biological target: MST4 (Homo sapiens, UniProt Q9P289)
[5] = biological target: CAMK2B (Homo sapiens, UniProt Q13554)
[6] = biological target: LZK (Homo sapiens, UniProt O43283)
[7] = biological target: LRRK2 (Homo sapiens, UniProt Q5S007)
[8] = biological target: GSK3A (Homo sapiens, UniProt P49840)
[9] = biological target: ACVR1B (Homo sapiens, UniProt P36896)
[10] = biological target: ABL2 (Homo sapiens, UniProt P42684)
[11] = biological target: MRCKA (Homo sapiens, UniProt Q5VT25)
[12] = biological target: AURKA (Homo sapiens, UniProt O14965)
[13] = biological target: MYO3B (Homo sapiens, UniProt Q8WXR4)
[14] = biological target: MARK4 (Homo sapiens, UniProt Q96L34)
[15] = biological target: KIT(A829P) (Homo sapiens, UniProt P10721, A829P)
[16] = biological target: CDC2L1 (Homo sapiens, UniProt P21127)
[17] = biological target: CDK4-cyclinD1 (Homo sapiens, UniProt P11802)
[18] = biological target: MYLK2 (Homo sapiens, UniProt Q9H1R3)
[19] = biological target: MEK5 (Homo sapiens, UniProt Q13163)
[20] = biological target: MST2 (Homo sapiens, UniProt Q13188)
[21] = biological target: MAPKAPK2 (Homo sapiens, UniProt P49137)
[22] = biological target: DMPK2 (Homo sapiens, UniProt Q6DT37)
[23] = biological target: KIT(L576P) (Homo sapiens, UniProt P10721, L576P)
[24] = biological target: BRAF (Homo sapiens, UniProt P15056)
[25] = biological target: MAP3K3 (Homo sapiens, UniProt Q99759)
[26] = biological target: DMPK (Homo sapiens, UniProt Q09013)
[27] = biological target: IKK-alpha (Homo sapiens, UniProt O15111)
[28] = biological target: BRAF(V600E) (Homo sapiens, UniProt P15056, V600E)
[29] = biological target: MEK4 (Homo sapiens, UniProt P45985)
[30] = biological target: ANKK1 (Homo sapiens, UniProt Q8NFD2)
[31] = read-out: CPT-1-70-1 (1uM) % control
[32] = read-out: HYJ-2-002-1 (1uM) % control

Chain of MRCKA (Q5VT25 whole entry): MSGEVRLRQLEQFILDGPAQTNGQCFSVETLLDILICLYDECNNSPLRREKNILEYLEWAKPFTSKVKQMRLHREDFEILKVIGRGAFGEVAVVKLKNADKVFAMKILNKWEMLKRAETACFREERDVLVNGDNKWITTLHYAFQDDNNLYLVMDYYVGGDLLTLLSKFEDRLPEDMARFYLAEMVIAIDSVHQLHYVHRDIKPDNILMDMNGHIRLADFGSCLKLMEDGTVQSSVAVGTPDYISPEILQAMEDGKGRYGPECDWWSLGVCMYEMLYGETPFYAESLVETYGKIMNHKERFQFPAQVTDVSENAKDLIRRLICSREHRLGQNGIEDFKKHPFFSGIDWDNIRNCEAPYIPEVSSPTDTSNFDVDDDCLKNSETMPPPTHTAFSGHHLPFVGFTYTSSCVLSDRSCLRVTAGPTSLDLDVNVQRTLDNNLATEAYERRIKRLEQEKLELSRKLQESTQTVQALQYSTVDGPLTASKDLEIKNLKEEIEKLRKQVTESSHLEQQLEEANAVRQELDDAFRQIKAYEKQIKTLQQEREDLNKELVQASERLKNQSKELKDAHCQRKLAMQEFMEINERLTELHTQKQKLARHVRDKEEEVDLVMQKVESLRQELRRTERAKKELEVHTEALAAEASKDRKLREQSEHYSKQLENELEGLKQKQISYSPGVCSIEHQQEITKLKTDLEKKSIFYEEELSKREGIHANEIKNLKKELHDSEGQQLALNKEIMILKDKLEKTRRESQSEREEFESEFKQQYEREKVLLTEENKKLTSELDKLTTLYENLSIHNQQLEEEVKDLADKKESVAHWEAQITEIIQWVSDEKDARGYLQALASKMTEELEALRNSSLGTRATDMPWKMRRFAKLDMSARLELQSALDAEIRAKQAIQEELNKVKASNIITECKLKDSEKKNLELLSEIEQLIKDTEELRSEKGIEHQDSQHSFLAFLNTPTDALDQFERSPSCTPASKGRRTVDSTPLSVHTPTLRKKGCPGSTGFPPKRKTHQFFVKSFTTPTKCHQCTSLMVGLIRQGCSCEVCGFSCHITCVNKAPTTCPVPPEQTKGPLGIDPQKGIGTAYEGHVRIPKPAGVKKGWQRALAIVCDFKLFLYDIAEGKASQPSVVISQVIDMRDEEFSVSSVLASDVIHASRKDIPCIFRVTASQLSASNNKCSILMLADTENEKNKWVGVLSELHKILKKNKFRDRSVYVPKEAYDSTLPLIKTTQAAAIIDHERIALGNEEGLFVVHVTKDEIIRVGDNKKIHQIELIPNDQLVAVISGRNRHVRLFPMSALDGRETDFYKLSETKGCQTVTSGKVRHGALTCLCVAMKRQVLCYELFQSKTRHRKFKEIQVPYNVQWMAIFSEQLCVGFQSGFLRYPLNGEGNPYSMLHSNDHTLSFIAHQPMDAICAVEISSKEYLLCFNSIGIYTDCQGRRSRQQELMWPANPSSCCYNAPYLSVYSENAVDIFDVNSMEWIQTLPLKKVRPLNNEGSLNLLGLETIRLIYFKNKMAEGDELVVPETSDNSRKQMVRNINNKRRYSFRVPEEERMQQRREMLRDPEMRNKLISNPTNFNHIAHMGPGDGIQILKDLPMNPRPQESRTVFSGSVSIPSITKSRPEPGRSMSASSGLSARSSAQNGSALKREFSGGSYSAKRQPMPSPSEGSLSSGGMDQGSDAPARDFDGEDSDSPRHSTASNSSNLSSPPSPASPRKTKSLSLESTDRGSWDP
Chain of AURKA (O14965 whole entry): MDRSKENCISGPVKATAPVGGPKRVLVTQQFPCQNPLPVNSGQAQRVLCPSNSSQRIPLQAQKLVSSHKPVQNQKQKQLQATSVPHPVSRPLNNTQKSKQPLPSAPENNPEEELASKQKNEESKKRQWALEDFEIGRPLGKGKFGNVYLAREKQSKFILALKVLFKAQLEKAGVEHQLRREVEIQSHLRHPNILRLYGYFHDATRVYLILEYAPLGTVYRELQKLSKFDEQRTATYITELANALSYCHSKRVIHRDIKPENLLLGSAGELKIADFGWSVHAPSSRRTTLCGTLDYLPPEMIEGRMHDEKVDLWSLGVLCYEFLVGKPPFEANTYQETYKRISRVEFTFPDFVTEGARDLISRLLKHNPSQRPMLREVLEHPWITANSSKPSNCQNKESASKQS
Chain of ABL2 (P42684 whole entry): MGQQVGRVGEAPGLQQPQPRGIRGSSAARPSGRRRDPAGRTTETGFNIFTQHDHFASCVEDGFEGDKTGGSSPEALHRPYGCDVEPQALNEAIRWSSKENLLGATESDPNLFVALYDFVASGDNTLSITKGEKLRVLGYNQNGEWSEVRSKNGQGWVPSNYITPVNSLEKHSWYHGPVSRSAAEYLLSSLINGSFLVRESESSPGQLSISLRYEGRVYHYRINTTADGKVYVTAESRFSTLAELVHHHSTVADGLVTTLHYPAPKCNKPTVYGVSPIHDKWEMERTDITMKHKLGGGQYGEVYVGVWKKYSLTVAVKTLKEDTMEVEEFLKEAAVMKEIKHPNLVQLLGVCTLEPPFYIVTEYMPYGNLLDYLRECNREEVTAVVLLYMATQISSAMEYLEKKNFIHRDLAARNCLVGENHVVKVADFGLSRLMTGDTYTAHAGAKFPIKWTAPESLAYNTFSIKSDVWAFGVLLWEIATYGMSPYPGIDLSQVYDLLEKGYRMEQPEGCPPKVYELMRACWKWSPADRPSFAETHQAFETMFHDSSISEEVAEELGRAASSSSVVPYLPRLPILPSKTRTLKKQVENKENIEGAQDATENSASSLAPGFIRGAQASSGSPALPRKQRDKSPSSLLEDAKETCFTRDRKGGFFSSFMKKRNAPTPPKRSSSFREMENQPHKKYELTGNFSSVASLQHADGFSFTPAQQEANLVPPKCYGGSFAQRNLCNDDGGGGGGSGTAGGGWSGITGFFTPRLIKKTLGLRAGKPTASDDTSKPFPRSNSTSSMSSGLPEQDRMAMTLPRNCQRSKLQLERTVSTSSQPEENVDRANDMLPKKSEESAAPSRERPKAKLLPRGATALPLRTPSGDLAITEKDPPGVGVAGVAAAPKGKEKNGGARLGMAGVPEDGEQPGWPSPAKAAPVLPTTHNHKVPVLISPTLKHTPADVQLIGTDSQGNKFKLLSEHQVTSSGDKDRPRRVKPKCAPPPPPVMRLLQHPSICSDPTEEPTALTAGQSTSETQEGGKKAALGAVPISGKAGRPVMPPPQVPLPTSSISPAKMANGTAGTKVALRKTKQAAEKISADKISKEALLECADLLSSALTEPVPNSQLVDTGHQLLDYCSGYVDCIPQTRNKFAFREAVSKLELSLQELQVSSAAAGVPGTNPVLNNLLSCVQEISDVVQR
Chain of MYLK2 (Q9H1R3 whole entry): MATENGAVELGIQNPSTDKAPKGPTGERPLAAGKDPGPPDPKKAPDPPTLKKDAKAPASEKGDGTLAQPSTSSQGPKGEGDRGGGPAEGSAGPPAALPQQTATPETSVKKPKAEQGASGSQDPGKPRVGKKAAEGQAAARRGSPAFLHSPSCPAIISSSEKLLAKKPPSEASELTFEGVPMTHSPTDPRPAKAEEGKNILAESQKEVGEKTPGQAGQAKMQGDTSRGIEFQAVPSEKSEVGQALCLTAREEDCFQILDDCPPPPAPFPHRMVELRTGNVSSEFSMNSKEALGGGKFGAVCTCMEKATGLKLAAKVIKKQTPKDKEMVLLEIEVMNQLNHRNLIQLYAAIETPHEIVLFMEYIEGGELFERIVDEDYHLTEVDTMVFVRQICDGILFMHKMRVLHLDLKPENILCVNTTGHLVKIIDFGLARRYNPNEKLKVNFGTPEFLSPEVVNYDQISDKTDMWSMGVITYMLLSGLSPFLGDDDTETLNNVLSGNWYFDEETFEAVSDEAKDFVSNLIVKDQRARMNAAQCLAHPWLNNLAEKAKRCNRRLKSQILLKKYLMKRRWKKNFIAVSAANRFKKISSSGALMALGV
Chain of GSK3A (P49840 whole entry): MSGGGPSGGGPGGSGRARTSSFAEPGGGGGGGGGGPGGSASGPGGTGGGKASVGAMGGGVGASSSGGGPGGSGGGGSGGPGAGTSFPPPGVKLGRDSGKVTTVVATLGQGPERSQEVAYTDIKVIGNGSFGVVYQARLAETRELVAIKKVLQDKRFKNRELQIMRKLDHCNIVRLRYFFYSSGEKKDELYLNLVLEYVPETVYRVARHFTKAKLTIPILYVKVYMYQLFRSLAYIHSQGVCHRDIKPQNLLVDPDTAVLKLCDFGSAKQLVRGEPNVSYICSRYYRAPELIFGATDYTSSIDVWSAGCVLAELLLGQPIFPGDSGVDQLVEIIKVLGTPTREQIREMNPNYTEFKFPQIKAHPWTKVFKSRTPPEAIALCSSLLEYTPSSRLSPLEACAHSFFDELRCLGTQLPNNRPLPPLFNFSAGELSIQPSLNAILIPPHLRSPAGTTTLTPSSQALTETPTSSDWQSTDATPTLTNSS
Chain of CDK4-cyclinD1 (P11802 whole entry): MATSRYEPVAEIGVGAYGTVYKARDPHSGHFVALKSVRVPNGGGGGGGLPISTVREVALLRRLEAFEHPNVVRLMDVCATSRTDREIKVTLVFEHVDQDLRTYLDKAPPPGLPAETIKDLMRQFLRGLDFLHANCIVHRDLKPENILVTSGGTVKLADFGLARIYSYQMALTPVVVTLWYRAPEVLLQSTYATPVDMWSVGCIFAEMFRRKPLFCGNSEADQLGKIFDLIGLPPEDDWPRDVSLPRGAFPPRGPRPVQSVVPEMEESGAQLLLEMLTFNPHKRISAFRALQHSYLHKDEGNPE
Chain of CDK4-cyclinD1 (P24385 whole entry partner): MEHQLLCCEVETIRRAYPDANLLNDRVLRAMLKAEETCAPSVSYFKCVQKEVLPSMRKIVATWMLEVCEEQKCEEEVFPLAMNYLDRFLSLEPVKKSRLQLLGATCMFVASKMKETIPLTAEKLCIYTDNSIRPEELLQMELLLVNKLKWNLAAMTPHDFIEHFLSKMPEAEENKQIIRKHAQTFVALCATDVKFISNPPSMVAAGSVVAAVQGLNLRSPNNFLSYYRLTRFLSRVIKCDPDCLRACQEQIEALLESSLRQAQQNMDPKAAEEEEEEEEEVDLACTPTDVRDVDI

SMILES: CN1CCN(c2ccc(Nc3nc(Oc4ccc(NC(=O)CCl)cc4)c4cc[nH]c4n3)cc2)CC1 [CPT1-70-1]
remaining activity at 1 µM [1, 31]: 100%
remaining activity at 1 µM [2, 31]: 100%
remaining activity at 1 µM [3, 31]: 51%
remaining activity at 1 µM [4, 31]: 49%
remaining activity at 1 µM [5, 31]: 100%
remaining activity at 1 µM [6, 31]: 73%
remaining activity at 1 µM [7, 31]: 7.5%
remaining activity at 1 µM [8, 31]: 100%
remaining activity at 1 µM [9, 31]: 100%
remaining activity at 1 µM [10, 31]: 60%
remaining activity at 1 µM [11, 31]: 100%
remaining activity at 1 µM [12, 31]: 37%
remaining activity at 1 µM [13, 31]: 100%
remaining activity at 1 µM [14, 31]: 1.8%
remaining activity at 1 µM [15, 31]: 75%
remaining activity at 1 µM [16, 31]: 100%
remaining activity at 1 µM [17, 31]: 81%
remaining activity at 1 µM [18, 31]: 86%
remaining activity at 1 µM [19, 31]: 18%
remaining activity at 1 µM [20, 31]: 86%
remaining activity at 1 µM [21, 31]: 100%
remaining activity at 1 µM [22, 31]: 67%
remaining activity at 1 µM [23, 31]: 8.9%
remaining activity at 1 µM [24, 31]: 87%
remaining activity at 1 µM [25, 31]: 16%
remaining activity at 1 µM [26, 31]: 41%
remaining activity at 1 µM [27, 31]: 85%
remaining activity at 1 µM [28, 31]: 100%
remaining activity at 1 µM [29, 31]: 35%
remaining activity at 1 µM [30, 31]: 93%

remaining activity at 1 µM [1, 32]: 98%
remaining activity at 1 µM [2, 32]: 100%
remaining activity at 1 µM [3, 32]: 80%
remaining activity at 1 µM [4, 32]: 98%
remaining activity at 1 µM [5, 32]: 74%
remaining activity at 1 µM [6, 32]: 78%
remaining activity at 1 µM [7, 32]: 94%
remaining activity at 1 µM [8, 32]: 78%
remaining activity at 1 µM [9, 32]: 100%
remaining activity at 1 µM [10, 32]: 0%
remaining activity at 1 µM [11, 32]: 100%
remaining activity at 1 µM [12, 32]: 100%
remaining activity at 1 µM [13, 32]: 49%
remaining activity at 1 µM [14, 32]: 94%
remaining activity at 1 µM [15, 32]: 61%
remaining activity at 1 µM [16, 32]: 88%
remaining activity at 1 µM [17, 32]: 80%
remaining activity at 1 µM [18, 32]: 0.85%
remaining activity at 1 µM [19, 32]: 0.85%
remaining activity at 1 µM [20, 32]: 83%
remaining activity at 1 µM [21, 32]: 100%
remaining activity at 1 µM [22, 32]: 92%
remaining activity at 1 µM [23, 32]: 82%
remaining activity at 1 µM [24, 32]: 3.7%
remaining activity at 1 µM [25, 32]: 1.6%
remaining activity at 1 µM [26, 32]: 100%
remaining activity at 1 µM [27, 32]: 0.2%
remaining activity at 1 µM [28, 32]: 1.2%
remaining activity at 1 µM [29, 32]: 100%
remaining activity at 1 µM [30, 32]: 9.4%
SMILES: CCN1CCN(Cc2ccc(NC(=O)c3ccc(C)c(CCc4cnc5[nH]ccc5c4OC)c3)cc2C(F)(F)F)CC1 [HYJ-2-002-1]
